Assay results from US20230295140A1, “INHIBITORS OF VAP-1” (Acucela Inc., priority 2021, published 2023).
Where a name gives a salt, the structure may show the parent alone.

Key:
Type in all cases: biochemical
rhVAP-1 = rhVAP-1 (Homo sapiens (Human), UniProt Q16853); experiment: VAP-1 fluorometric assay (Amplex Red/HRP, benzylamine substrate); settings: class symbols, ranges defined in μM
Method: The capability of compounds described herein to inhibit the enzymatic activity of vascular adhesion protein-1 (VAP-1) was determined by fluorometric assay. The assay procedure provided by R&D Systems was modified slightly for use as an inhibitor screening assay. The assay measured the H2O2 generated from the oxidative deamination of benzylamine by rhVAP-1 by converting Amplex® Red to the fluorescent product, resorufin, via horseradish peroxidase (HRP) and H2O2. Reaction buffer was 10 mM NaHCO3, pH 7.4. A standard curve was prepared by serially diluting H2O2 in reaction buffer. A 10 μM solution of resorufin was prepared in reaction buffer and was dispensed to 2 wells. These wells served as positive control for maximum fluorescence. Reaction buffer was added to the individual wells so that the final volume in each well was 100 μL. Amplex Red was diluted to 1 mM in reaction buffer. A 10 U stock of HRP was prepared in reaction buffer. A reaction cocktail was prepared by mixing equal parts 1 mM Amplex Red with 10 U HRP with 3 parts reaction buffers. The reaction cocktail was added to the appropriate wells, so that that final concentration in the well was 0.05 mM Amplex Red and 0.5 U HRP. A 200 μM solution of benzylamine was prepared in reaction buffer. Benzylamine was added to the appropriate wells so that the final concentration was 50 μM. Inhibitors were diluted in DMSO to 20× and distributed to the appropriate wells. LJP-1207 served a positive control. rhVAP-1 was purchased from R&D Systems. The concentration used for each lot was determined so that the activity was equal to the first lot. Two wells were left blank as controls. The plate was incubated for 30 minutes at 37° C., protected from light under foil. The plate was read at 530/35 emission and 590/35 excitation. Data processing was performed using Excel and Prism software.
The capability of compounds described herein to inhibit the enzymatic activity of vascular adhesion protein-1 (VAP-1) was determined by fluorometric assay. The assay procedure provided by R&D Systems was modified slightly for use as an inhibitor screening assay. The assay measured the H2O2 generated from the oxidative deamination of benzylamine by rhVAP-1 by converting Amplex® Red to the fluorescent product, resorufin, via horseradish peroxidase (HRP) and H2O2. Amplex Red, HRP, Benzylamine, inhibitors (with DMSO as vehicle, 0.5% v/v) and rhVAP-1 were added to the wells. Assay was conducted in 10 mM NaHCO3, pH 7.4. A standard curve was prepared by serially diluting H2O2 in reaction buffer. The plate was incubated for 30 minutes at 37° C., protected from light under foil. The plate was read at 530/35 emission and 590/35 excitation. Data processing was performed using Prism software.

rhMAO-B = rhMAO-B (Homo sapiens (Human), UniProt P27338); experiment: MAO-Glo assay, MAO-B inhibition
Method: (§1) The capability of compounds described herein to inhibit MAO was determined using a modified Promega MAO-Glo™ assay kit. The substrate ((4S)-4,5-dihydro-2-(6-hydroxybenzothiazolyl)-4-thiazolecarboxylic acid) was converted by MAO to produce methyl ester luciferin. The luciferin was then converted by luciferase to produce oxyluciferin and light. The light was measured using a luminescence setting on the plate reader. A standard curve was prepared by serially diluting luciferin in reaction buffer. The standard kit reaction buffer was used—100 mM HEPES (pH 7.5), 5% glycerol. The substrate was dispensed into the wells so that the final concentration for MAO-A inhibition assay would be 10 μM and MAO-B inhibition assay would be […]. Inhibitors were diluted in DMSO to 4× and distributed to the appropriate wells. Clorgyline and Deprenyl served as positive controls. rhMAO-A and rhMAO-B were purchased from Sigma. MAO-A or MAO-B was added to the appropriate wells. The plate was incubated for 1 hour, at room temperature with gentle shaking (90 rpm). The detection agent was added at equal volume (48 μL detection agent to 48 μL reaction). The plate was incubated for 20 minutes, at room temperature with gentle shaking (90 rpm). The plate luminescence was read. Data processing was performed using Prism software.
(§2) The capability of compounds described herein to inhibit MAO was determined using a modified Promega MAO-Glo™ assay. Test compounds, substrate and enzyme were incubated per manufacturer instructions for 1 hour, at room temperature with gentle shaking (90 rpm) before addition of detection agent. The detection agent was added at equal volume (48 μL detection agent to 48 μL reaction). The plate was incubated for 20 minutes, at room temperature with gentle shaking (90 rpm). The plate luminescence was read. Data processing was performed using Prism software.

rhMAO-A = rhMAO-A (Homo sapiens (Human), UniProt P21397); experiment: MAO-Glo assay, MAO-A inhibition; settings: class symbols, ranges defined in μM
Method: as §1, §2

[1] = class symbols, ranges defined in μM

rhMAO-B, sequence (P27338 whole entry): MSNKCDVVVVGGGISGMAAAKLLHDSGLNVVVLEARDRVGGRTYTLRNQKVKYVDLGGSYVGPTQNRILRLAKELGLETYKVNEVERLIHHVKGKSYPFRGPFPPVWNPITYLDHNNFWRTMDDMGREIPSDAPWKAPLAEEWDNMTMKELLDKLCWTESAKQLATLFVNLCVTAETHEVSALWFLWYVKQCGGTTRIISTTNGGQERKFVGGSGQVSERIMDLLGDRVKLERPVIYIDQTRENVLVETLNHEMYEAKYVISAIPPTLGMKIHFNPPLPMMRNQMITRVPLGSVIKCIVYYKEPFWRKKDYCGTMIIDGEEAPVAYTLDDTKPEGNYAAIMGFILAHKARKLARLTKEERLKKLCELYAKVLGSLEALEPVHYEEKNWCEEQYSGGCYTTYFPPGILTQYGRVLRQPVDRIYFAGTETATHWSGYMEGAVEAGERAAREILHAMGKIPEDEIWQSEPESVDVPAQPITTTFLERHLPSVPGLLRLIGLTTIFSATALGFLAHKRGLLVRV
rhVAP-1, sequence (Q16853 whole entry): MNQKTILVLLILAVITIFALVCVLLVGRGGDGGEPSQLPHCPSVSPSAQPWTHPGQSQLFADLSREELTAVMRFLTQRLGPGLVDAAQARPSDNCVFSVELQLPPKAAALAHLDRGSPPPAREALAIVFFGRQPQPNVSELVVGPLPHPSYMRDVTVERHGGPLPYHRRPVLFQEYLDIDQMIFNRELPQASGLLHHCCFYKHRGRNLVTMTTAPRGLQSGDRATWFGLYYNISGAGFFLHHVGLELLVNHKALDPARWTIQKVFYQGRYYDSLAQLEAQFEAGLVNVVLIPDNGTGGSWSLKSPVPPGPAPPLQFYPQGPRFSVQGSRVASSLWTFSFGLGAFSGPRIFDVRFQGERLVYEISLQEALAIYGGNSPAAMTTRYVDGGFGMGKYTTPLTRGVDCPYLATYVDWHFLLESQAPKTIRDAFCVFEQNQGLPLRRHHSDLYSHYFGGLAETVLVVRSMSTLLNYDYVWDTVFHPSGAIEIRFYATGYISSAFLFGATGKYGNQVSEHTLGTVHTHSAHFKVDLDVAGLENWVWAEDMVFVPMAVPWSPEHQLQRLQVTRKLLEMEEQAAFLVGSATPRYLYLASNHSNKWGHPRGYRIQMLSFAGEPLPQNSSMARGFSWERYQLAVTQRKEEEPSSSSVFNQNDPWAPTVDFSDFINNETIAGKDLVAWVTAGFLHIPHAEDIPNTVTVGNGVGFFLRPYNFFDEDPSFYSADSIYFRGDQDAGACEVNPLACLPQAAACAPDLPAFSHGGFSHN
rhMAO-A, sequence (P21397 whole entry): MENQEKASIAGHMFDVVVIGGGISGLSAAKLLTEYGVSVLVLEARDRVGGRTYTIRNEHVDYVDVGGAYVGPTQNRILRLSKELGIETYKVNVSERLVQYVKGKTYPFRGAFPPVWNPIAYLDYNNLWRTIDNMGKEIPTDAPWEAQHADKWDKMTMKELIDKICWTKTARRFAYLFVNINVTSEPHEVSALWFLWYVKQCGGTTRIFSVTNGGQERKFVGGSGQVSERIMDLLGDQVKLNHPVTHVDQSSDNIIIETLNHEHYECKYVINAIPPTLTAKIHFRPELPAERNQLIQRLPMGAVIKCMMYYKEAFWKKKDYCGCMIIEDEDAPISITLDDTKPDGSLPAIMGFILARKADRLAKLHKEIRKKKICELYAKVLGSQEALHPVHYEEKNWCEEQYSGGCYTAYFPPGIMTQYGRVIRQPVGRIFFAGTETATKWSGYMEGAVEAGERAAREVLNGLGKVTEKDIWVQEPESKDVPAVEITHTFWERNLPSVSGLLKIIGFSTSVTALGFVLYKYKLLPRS

| SMILES | IC50 (rhVAP-1) [µM] | IC50 (rhMAO-B; number printed in cell) [µM] | IC50 (rhMAO-A) [µM] | IC50 (rhMAO-B; [1]) [µM] |
| --- | --- | --- | --- | --- |
| COc1ccc(CNc2nc3ccc(OC/C(=C/F)CN)cc3o2)cc1 [Example 24, (E)-6-((2-(aminomethyl)-3-fluoroallyl)oxy)-N-(4-methoxybenzyl)benzo[d]oxazol-2-amine 4-methylbenzenesulfonate] | < 0.1 | 0.637 | 10 to 30 | – |
| COc1cccc(CNc2nc3ccc(OC/C(=C/F)CN)cc3o2)c1 [Example 25, (E)-6-((2-(aminomethyl)-3-fluoroallyl)oxy)-N-(3-methoxybenzyl)benzo[d]oxazol-2-amine 4-methylbenzenesulfonate] | < 0.1 | – | 1 to 10 | 0.1 to 1 |
| NC/C(=C\F)COc1ccc2nc(NCc3cccnc3)oc2c1 [Example 26, (E)-6-((2-(aminomethyl)-3-fluoroallyl)oxy)-N-(pyridin-3-ylmethyl)benzo[d]oxazol-2-amine 4-methylbenzenesulfonate] | < 0.1 | – | 10 to 30 | 1 to 10 |
| CCCCc1nc2ccc(C(=CF)CN)cc2o1 [Example 27, 2-(2-butylbenzo[d]oxazol-6-yl)-3-fluoroprop-2-en-1-amine 4-methylbenzenesulfonate] | < 0.1 | – | 1 to 10 | 10 to 30 |
| CCCCc1nc2ccc(COC/C(=C/F)CN)cc2o1 [Example 28, (E)-2-(((2-butylbenzo[d]oxazol-6-yl)methoxy)methyl)-3-fluoroprop-2-en-1-amine] | < 0.1 | – | 10 to 30 | < 0.1 |
| CCCCc1nc2ccc(C/C(=C/F)CN)cc2o1 [Example 31, (Z)-2-((2-butylbenzo[d]oxazol-6-yl)methyl)-3-fluoroprop-2-en-1-amine] | < 0.1 | – | 10 to 30 | 1 to 10 |
| CC1(C)CCC(c2nc3ccc(OC/C(=C/F)CN)cc3o2)CC1 [Example 36, (E)-2-(((2-(4,4-dimethylcyclohexyl)benzo[d]oxazol-6-yl)oxy)methyl)-3-fluoroprop-2-en-1-amine 4-methylbenzenesulfonate] | < 0.1 | – | 10 to 30 | 0.1 to 1 |
| NC/C(=C\F)COc1ccc2nc(C3CCCC3)oc2c1 [Example 37, (E)-2-(((2-cyclopentylbenzo[d]oxazol-6-yl)oxy)methyl)-3-fluoroprop-2-en-1-amine 4-methylbenzenesulfonate] | < 0.1 | – | 1 to 10 | 0.1 to 1 |
| CCCCc1nc2ccc(C(=O)NC/C(=C/F)CN)cc2o1 [Example 40, (E)-N-(2-(aminomethyl)-3-fluoroallyl)-2-butylbenzo[d]oxazole-6-carboxamide 4-methylbenzenesulfonate] | 0.1 to 1 | – | 10 to 30 | 10 to 30 |
| NC/C(=C\F)COc1ccc2nc(C3CCC(c4ccccc4)CC3)oc2c1 (stereo not drawn) [Example 41, (E)-3-fluoro-2-(((2-(4-phenylcyclohexyl)benzo[d]oxazol-6-yl)oxy)methyl)prop-2-en-1-amine 4-methylbenzenesulfonate] | < 0.1 | – | 10 to 30 | 0.1 to 1 |
| NC/C(=C\F)COc1ccc2nc(NCCc3ccccc3)oc2c1 [Example 45, (E)-6-((2-(aminomethyl)-3-fluoroallyl)oxy)-N-phenethylbenzo[d]oxazol-2-amine 4-methylbenzenesulfonate] | < 0.1 | – | 10 to 30 | 0.1 to 1 |
| NC/C(=C\F)COc1ccc2nc(NCCO)oc2c1 [Example 47, (E)-2-((6-((2-(aminomethyl)-3-fluoroallyl)oxy)benzo[d]oxazol-2-yl)amino)ethan-1-ol 4-methylbenzenesulfonate] | < 0.1 | – | 10 to 30 | 10 to 30 |
| CC(C)(Nc1nc2ccc(OC/C(=C/F)CN)cc2o1)c1ccccc1 [Example 48, (E)-6-((2-(aminomethyl)-3-fluoroallyl)oxy)-N-(2-phenylpropan-2-yl)benzo[d]oxazol-2-amine 4-methylbenzenesulfonate] | < 0.1 | – | 10 to 30 | 10 to 30 |

Results, then the molecule that gave them:

| IC50 (rhVAP-1) [µM] | IC50 (rhMAO-B; number printed in cell) [µM] | IC50 (rhMAO-A) [µM] | IC50 (rhMAO-B; [1]) [µM] | SMILES |
| --- | --- | --- | --- | --- |
| < 0.1 | – | 10 to 30 | 10 to 30 | CCCCc1nc2ccc(OCC(CN)=C(F)F)cc2o1 [Example 32, 2-(((2-butylbenzo[d]oxazol-6-yl)oxy)methyl)-3,3-difluoroprop-2-en-1-amine hydrochloride] |
| < 0.1 | – | 10 to 30 | 0.1 to 1 | CC1CN(c2nc3ccc(OC/C(=C/F)CN)cc3o2)C1 [Example 33, (E)-3-fluoro-2-(((2-(3-methylazetidin-1-yl)benzo[d]oxazol-6-yl)oxy)methyl)prop-2-en-1-amine 4-methylbenzenesulfonate] |
| < 0.1 | – | 10 to 30 | 0.1 to 1 | NC/C(=C\F)COc1ccc2nc(C34CCC(CC3)CC4)oc2c1 [Example 34, (E)-2-(((2-(bicyclo[2.2.2]octan-1-yl)benzo[d]oxazol-6-yl)oxy)methyl)-3-fluoroprop-2-en-1-amine 4-methylbenzenesulfonate] |
| < 0.1 | – | 10 to 30 | < 0.1 | NC/C(=C\F)COc1ccc2nc(CCCCc3ccccc3)oc2c1 [Example 35, 4-methylbenzenesulfonate] |
| < 0.1 | – | 0.1 to 1 | < 0.1 | CCCCc1nc2ccc(OCCC(=CF)CN)cc2o1 [Example 38, 4-((2-butylbenzo[d]oxazol-6-yl)oxy)-2-(fluoromethylene)butan-1-amine 4-methylbenzenesulfonate] |
| < 0.1 | – | 10 to 30 | 1 to 10 | CC(C)(C)Nc1nc2ccc(OC/C(=C/F)CN)cc2o1 [Example 39, (E)-6-((2-(aminomethyl)-3-fluoroallyl)oxy)-N-(tert-butyl)benzo[d]oxazol-2-amine 4-methylbenzenesulfonate] |
| < 0.1 | – | 10 to 30 | 0.1 to 1 | CCCC(C)c1nc2ccc(OC/C(=C/F)CN)cc2o1 (stereo not drawn) [Example 43, (E)-3-fluoro-2-(((2-(pentan-2-yl)benzo[d]oxazol-6-yl)oxy)methyl)prop-2-en-1-amine 4-methylbenzenesulfonate] |
| < 0.1 | – | 10 to 30 | 0.1 to 1 | CCCCc1nc2ccc(NC/C(=C\F)CN)cc2o1 [Example 44, (Z)—N1-(2-butylbenzo[d]oxazol-6-yl)-2-(fluoromethylene)propane-1,3-diamine 4-methylbenzenesulfonate] |
| < 0.1 | – | 1 to 10 | 1 to 10 | CCCN(C)c1nc2ccc(OC/C(=C/F)CN)cc2o1 [Example 46, (E)-6-((2-(aminomethyl)-3-fluoroallyl)oxy)-N-methyl-N-propylbenzo[d]oxazol-2-amine 4-methylbenzenesulfonate] |
| < 0.1 | – | 10 to 30 | 0.1 to 1 | CN(Cc1ccccc1)c1nc2ccc(OC/C(=C/F)CN)cc2o1 [Example 49, (E)-6-((2-(aminomethyl)-3-fluoroallyl)oxy)-N-benzyl-N-methylbenzo[d]oxazol-2-amine 4-methylbenzenesulfonate] |
